Drawing on US11414385B2, “Compounds and methods for treating, detecting, and identifying compounds to treat apicomplexan parasitic diseases” (The University of Chicago, priority 2015, dated 2022), this text covers IC50 for 19 compounds.

Assay [1] has as its system T. gondii tachyzoites (RH-YFP strain). Description: In vitro challenge assay for Toxoplasma tachyzoites (RH-YFP in HFF, fluorescence). The settings on record: Toxoplasma gondii; RH-YFP; read-out: Tachy IC50. In kind it is cell-based, Toxoplasma gondii. The procedure:
Human foreskin fibroblasts (HFF) were cultured on a flat, clear-bottomed, black 96-well plate to 90% to 100% confluence. IMDM (1×, [+] glutamine, [+] 25 mM HEPES, [+] Phenol red, 10% FBS [gibco, Denmark]) was removed from each well and replaced with IMDM-C (1×, [+] glutamine, [+] 25 mM HEPES, [−] Phenol red, 10% FBS)[Gibco, Denmark]). Type I RH parasites expressing Yellow Fluorescent Protein (RH-YFP) were lysed from host cells by double passage through a 27-gauge needle. Parasites were counted and diluted to 32,000/mL in IMDM-C. Fibroblast cultures were infected with 3200 tachyzoites of the Type I RH-YFP strain and returned to incubator at 37° C. for 1-2 hours to allow for infection. Diluted solutions of the compounds were made using IMDM-C, and 20 μl were added to each designated well, with triplicates for each condition. Controls included pyrimethamine/sulfadiazine (current standard of treatment), DMSO only, fibroblast only, and an untreated YFP gradient with 2 fold dilutions of the parasite. Cells were incubated at 37° C. for 72 hours. The plates were read using a fluorimeter (Synergy H4 Hybrid Reader, BioTek) To ascertain the amount of yellow fluorescent protein, in relative fluorescence units (RFU), as a measure of parasite burden after treatment. Compounds were not considered effective or pursued for further analysis if there were no signs of inhibition at 1 μM. Data was collected using Gen5 software and analyzed with Excel.
Protocol adapted from Fomovska, et. al. (18,19). Human foreskin fibroblasts (HFF) were cultured on a flat, clear-bottomed, black 96-well plate to 90% to 100% confluence. IMDM (1×, [+] glutamine, [+] 25 mM HEPES, [+] Phenol red, 10% FBS [gibco, Denmark]) was removed from each well and replaced with IMDM-C (1×, [+] glutamine, [+] 25 mM HEPES, [−] Phenol red, 10% FBS)[gibco, Denmark]). Type I RH parasites expressing Yellow Fluorescent Protein (RH-YFP) were lysed from host cells by double passage through a 27-gauge needle. Parasites were counted and diluted to 32,000/mL in IMDM-C. Fibroblast cultures were infected with 3200 tachyzoites of the Type I RH strain expressing Yellow Fluorescent Protein (RH-YFP) and returned to incubator at 37° C. for 1-2 hours to allow for infection (15). Various concentrations of the compounds were made using IMDM-C, and 20 μl were added to each designated well, with triplicates for each condition. Controls included pyrimethamine/sulfadiazine (current standard of treatment), 0.1% DMSO only, fibroblast only, and an untreated YFP gradient with 2 fold dilutions of the parasite. Cells were incubated at 37° C. for 72 hours. Plates were read using a fluorimeter (Synergy H4 Hybrid Reader, BioTek) to ascertain the amount of yellow fluorescent protein, in relative fluorescence units (RFU), as a measure of parasite burden after treatment. Data was collected using Gen5 software. IC50 was calculated by graphical analysis in Excel.
An initial screening assay of 10 μM, 1 μM, 100 nM, and 10 nM was performed. Compounds were not considered effective or pursued for further analysis if there were no signs of inhibition of tachyzoites at 1 μM. If compounds did appear to be effective at 1 μM, another experiment was conducted to assess effect at 1 μM, 500 nM, 250 nM, 125 nM, 62.5 nM, and 31.25 nM.
Protocol adapted from Fomovska, et. al. (Fomovska A, Huang Q, El Bissati K, Mui E J, Witola W H, Cheng G, et al. Novel N-Benzoyl-2-Hydroxybenzamide Disrupts Unique Parasite Secretory Pathway. Antimicrob Agents Chemother [Internet]. 2012 May [cited 2015 Jul. 8]; 56(5):2666-82; Fomovska A, Wood R D, Mui E, Dubey J P, Ferreira L R, Hickman M R, et al. Salicylanilide inhibitors of Toxoplasma gondii. J Med Chem. 2012 Oct. 11; 55(19):8375-91.). Human foreskin fibroblasts (HFF) were cultured on a flat, clear-bottomed, black 96-well plate to 90% to 100% confluence. […]

The subject of assay [2] is P. falciparum strains D6, TM91-C235, W2, C2B. The experiment in a line: Malaria SYBR Green I-Based Fluorescence (MSF) Assay. Type of assay: cell-based, Plasmodium falciparum. The procedure: Testing of P. falciparum: D6 is a drug sensitive strain from Sierra Leone, C235 is a multi-drug resistant strain from Thailand, W2 is a chloroquine resistant strain from Thailand, and C2B has resistance to a variety of drugs including atovaquone.
D6 is a drug sensitive strain from Sierra Leone, C235 is a multi-drug resistant strain from Thailand, W2 is a chloroquine resistant strain from Thailand, and C2B has resistance to a variety of drugs including atovaquone. These assays were performed as described.
(§1) Compound activity against P. falciparum, a causative agent of malaria, was tested using the Malaria SYBR Green I—Based Fluorescence (MSF) Assay. This; microtiter plate drug sensitivity assay uses the presence of malarial DNA as a measure of parasitic proliferation in the presence of antimalarial drugs or experimental compounds based on modifications of previously described methods by Plouffe et al (20) and Johnson et al. As the intercalation of SYBR Green I dye and its resulting fluorescence is relative to parasite growth, a test compound that inhibits the growth of the parasite will result in a lower fluorescence.
Selected compounds were examined for activity against four strains of P. falciparum: D6 (CDC/Sierra Leone), a drug-sensitive strain readily killed by chloroquine, TM91-C235, a multi-drug resistant strain resistant to chloroquine, W2, a chloroquine resistant strain from Thailand, and C2B has resistance to a variety of drugs including atovaquone.
D6 is a drug sensitive strain from Sierra Leone, C235 is a multi-drug resistant strain from Thailand, W2 is a chloroquine resistant strain from Thailand, and C2B has resistance to a variety of drugs including atovaquone. These assays were performed using standard protocols.
as §1, with “known in the art.” for “by Plouffe et al (20) and Johnson et al.”, “fluorescence. Selected compounds were examined for activity against four strains of P. falciparum: D6 (CDC/Sierra Leone), a drugsensitive strain readily killed by chloroquine, TM91-C235, a multi-drug resistant strain resistant to chloroquine, W2, a chloroquine resistant strain from Thailand, and C2B has resistance to a variety of drugs including atovaquone.” for “fluorescence.”

[3] abbreviates: Plasmodium falciparum, C2B strain, read-out: SYBR Green C2B IC50.
[4] abbreviates: Plasmodium falciparum, D6 strain, read-out: Pf D6 IC50.
Setting [5] is: Plasmodium falciparum, D6 strain, read-out: SYBR Green D6 IC50.
Where [6] appears, read: Plasmodium falciparum, TM91C235 strain, read-out: SYBR Green C235 IC50.
The mark [7] stands for this setting: Plasmodium falciparum, W2 strain, read-out: SYBR Green W2 IC50.

The structures appear in SMILES notation. pIC50: −log10 of the molar value. Like-named read-outs stand apart in the source and are kept apart here. Where only a bound is given, the exact number is not on record here.

On to `Cc1[nH]c2c(c(=O)c1-c1ccc(Oc3cccc(OC(F)(F)F)c3)cc1)CCCC2` [AS006/ JAG143, 2-methyl-3-(4 (3-(trifluoromethoxy)phenoxy)phenyl)-5,6,7,8-tetrahydroquinolin-4(1H)-one], for which the pIC50 in assay [1] was 7.10 to 7.22.

Turning to `Cc1[nH]c2c(c(=O)c1-c1ccc(Oc3cccc(C(F)(F)F)c3)cc1)CCCC2` [AS012/ JAG144, 2-methyl-3-(4-(3-(trifluoromethyl)phenoxy)phenyl)-5,6,7,8-tetrahydroquinolin-4(1H)-one], in assay [1], the pIC50 is 6.52.

In the case of `Cc1[nH]c2c(c(=O)c1-c1ccc(Oc3ccc(F)c(Cl)c3)cc1)CCCC2` [AS021/ JAG145, 3-[4-(3-chloro-4-fluorophenoxy)phenyl]-2-methyl-5,6,7,8-tetrahydro-1H-quinolin-4-one], the pIC50 in assay [1] is 7.10.

With `Cc1[nH]c2c(c(=O)c1-c1ccc(Oc3cc(Cl)cc(Cl)c3)cc1)CCCC2` [AS022, 3-[4-(3,5-dichlorophenoxy)phenyl]-2-methyl-5,6,7,8-tetrahydro-1H-quinolin-4(1H)-one], the pIC50 in assay [1] was 7.40 to 7.70.

As for `Cc1[nH]c2c(c(=O)c1-c1ccc(Oc3ccc4c(c3)OCO4)cc1)CCCC2` [AS032, 3-[4-(2H-1,3-benzodioxo1-5-yloxy)phenyl]-2-methyl-5,6,7,8-tetrahydro-1H-quinolin-4-one], the pIC50 in assay [1] was 6.52 to 7.00.

As for `Cc1[nH]c2c(c(=O)c1-c1ccc(Oc3cc(Cl)nc(Cl)c3)cc1)CCCC2` [AS034/ JAG148, 3-{4-[(2,6-dichloropyridin-4-yl)oxy]phenyl}-2-methyl-5,6,7,8-tetrahydro-1H-quinolin-4-one], in assay [1], the pIC50 was 6.30 to 7.00.

Turning to `Cc1c(-c2ccc(Oc3ccc(OC(F)(F)F)cc3)cc2)c(=O)c2c(n1C)CCCC2` [JAG023, 1,2-dimethyl-3-(4-(4-(trifluoromethoxy)phenoxy)phenyl)-5,6,7,8-tetrahydroquinolin-4(1H)-one], the pIC50 in assay [1] is 6.00.

On to `Cc1[nH]c2c(c(=O)c1-c1ccc(Oc3ccc(C(=O)O)cc3)nc1)CCCC2` [JAG039, 4-((5-(2-methyl-4-oxo-1,4,5,6,7,8-hexahydroquinolin-3-yl)pyridin-2-yl)oxy)benzoic acid], for which the pIC50 in assay [2] (setting [3]) was less than 4.70; in assay [2] (setting [4]), 5.02; in assay [2] (setting [5]) it was 5.02; in assay [2] (setting [6]), less than 4.70; in assay [2] (setting [7]) it was less than 4.70.

Take `Cc1[nH]c2c(c(=O)c1-c1ccc(Oc3ccc(C(=O)O)cc3)cc1)CCCC2` [JAG046, 4-(4-(2-methyl-4-oxo-1,4,5,6,7,8-hexahydroquinolin-3-yl)phenoxy)benzoic acid]: in assay [2] (setting [4]), the pIC50 was 5.17.

For the compound `Cc1[nH]c2c(c(=O)c1-c1ccc(Oc3cccc(C(=O)O)c3)cc1)CCCC2` [JAG047, 3-(4-(2-methyl-4-oxo-1,4,5,6,7,8-hexahydroquinolin-3-yl)phenoxy)benzoic acid], the pIC50 in assay [2] (setting [4]) is 5.43.

Consider `Cc1[nH]c2c(c(=O)c1-c1ccc(Oc3ccc(F)cc3)cc1)CCCC2` [JAG58, 3-(4-(4-fluorophenoxy)phenyl)-2-methyl-5,6,7,8-tetrahydroquinolin-4(1H)-one], for which, in assay [1], the negative logarithm of the IC50 (pIC50) was 7.10 to 7.40.

With `Cc1[nH]c2c(c(=O)c1-c1ccc(Oc3ccc(C(F)(F)F)cc3)cc1)CCCC2` [JAG63, 2-methyl-3-(4-(4-(trifluoromethyl)phenoxy)phenyl)-5,6,7,8-tetrahydroquinolin-4(1H)-one], the pIC50 in assay [1] was 6.52 to 7.00.

`Cc1[nH]c2c(c(=O)c1-c1ccc(Oc3cccc(F)c3)cc1)CCCC2` [JAG069, 3-(4-(3-Fluorophenoxy)phenyl)-2-methyl-5,6,7,8-tetrahydroquinolin-4(1H)-one]: the pIC50 in assay [1] was 7.70.

On to `Cc1[nH]c2c(c(=O)c1-c1ccc(Oc3ccc(Cl)c(Cl)c3)cc1)CCCC2` [JAG084, 3-(4-(3,4-Dichlorophenoxy)phenyl)-2-methyl-5,6,7,8-tetrahydroquinolin-4(1H)-one], for which the pIC50 in assay [1] was 7.10 to 7.40.

`O=C(O)c1[nH]c2c(c(=O)c1-c1ccc(Oc3ccc(OC(F)(F)F)cc3)cc1)CCCC2` [JAG091, 3(4-(4-Trifluoromethoxyphenoxy)phenyl)-2-(carboxylate)-5,6,7,8-tetrahydroquinolin-4(1H)-one]: the pIC50 in assay [1] was less than 6.00.

On to `O=c1[nH]c2c(c(=O)n1-c1ccc(Oc3ccccc3)cc1)CCCC2` [JAG095, 3-(4-Phenonxyphenyl)-1,2,3,4,5,6,7,8-octahydroquinazoline-2,4,dione], for which the pIC50 in assay [1] is less than 5.00.

In the case of `CCn1c(C)c(-c2ccc(Oc3ccccc3)cc2)c(=O)c2ccccc21` [JM10, 1-ethyl-2-methyl-3-(4-phenoxyphenyl)quinolin-4(1H)-one], the pIC50 in assay [2] (setting [3]) was 5.17; in assay [2] (setting [5]), 6.06; in assay [2] (setting [6]), 5.35; in assay [2] (setting [7]), 5.27.

Turning to `Cc1[nH]c2ccccc2c(=O)c1-c1ccc(Oc2ccccc2)cc1` [MJM129, 2-methyl-3-(4-phenoxyphenyl)quinolin-4(1H)-one], the pIC50 in assay [2] (setting [3]) is 8.00; in assay [2] (setting [5]), 7.52; in assay [2] (setting [6]), 7.15; in assay [2] (setting [7]), 7.10.

In the case of `Cc1[nH]c2ccccc2c(=O)c1-c1ccc(Oc2ccc(Cl)cc2)c(O)c1` [RG38, 3-(4-(4-chlorophenoxy)-3-hydroxyphenyl)-2-methylquinolin-4(1H)-one], the pIC50 in assay [2] (D6 strain, read-out: SYBR Green D6 IC50) was 5.54; in assay [2] (setting [3]) it was less than 4.70; in assay [2] (setting [5]), 5.55; in assay [2] (setting [6]), 4.86; in assay [2] (setting [7]), 5.03.

One may read the pIC50 as −log10 of the IC50, conventionally taken in molar units.
